Results as given in PubChem BioAssay AID1259407 (Chemical Carcinogenesis Research Information System (CCRIS), 2018).
Calls of active or inactive are those of the source. How the calls were made is not given here.

System: CCRIS mutagenicity, Ames/micronucleus/aberration tests
Assay: CCRIS mutagenicity studies

In the case of `Cn1c(N)nc2c3cccnc3ccc21`, the mutagenic call (End Point: IN VIVO MICRONUCLEUS, Test System: BONE MARROW POLYCHROMATIC ERYTHROCYTES, Species: MOUSE, Strain/Sex: BALB/C/MALE, Route: IP INJECTION) is reported as “inactive; negative”, the mutagenic call (Test System: AMES SALMONELLA TYPHIMURIUM, Strain/Indicator: RAT, LIVER, MICROSOMES, Metabolic Activation: TA98, Method: PREINCUBATION) is reported as “active; positive” and the mutagenic call (Test System: AMES SALMONELLA TYPHIMURIUM, Strain/Indicator: RAT, LIVER, S-9, Metabolic Activation: TA98, Method: PREINCUBATION) is reported as “active; positive”. For the same molecule, the mutagenic call (Test System: AMES SALMONELLA TYPHIMURIUM, Strain/Indicator: TA98 (1,8-DNP6), Metabolic Activation: RAT, LIVER, S-9, AROCLOR, Method: PREINCUBATION) was “inactive; negative”, the mutagenic call (Test System: AMES SALMONELLA TYPHIMURIUM, Strain/Indicator: TA98(1,8-DNP6), Metabolic Activation: RAT, LIVER, S-9, Method: STANDARD PLATE) was “inactive; negative” and the mutagenic call (Test System: AMES SALMONELLA TYPHIMURIUM, Strain/Indicator: TA98, Metabolic Activation: CYNOMOLGUS MONKEY, LIVER, MICROSOMES, Method: PREINCUBATION) was “active; positive”. For the same molecule, the mutagenic call (Test System: AMES SALMONELLA TYPHIMURIUM, Strain/Indicator: TA98, Metabolic Activation: CYNOMOLOGUS MONKEY, LIVER, MICROSOMES, 2,3,7,8-TETRACHLORODIBENZO-P-DIOXIN, Method: PREINCUBATION) was “active; positive”, the mutagenic call (Test System: AMES SALMONELLA TYPHIMURIUM, Strain/Indicator: TA98, Metabolic Activation: CYNOMOLOGUS MONKEY, LIVER, MICROSOMES, 2-AMINO-3-METHYLIMIDAZO[4,5-F]QUINOLINE, Method: PREINCUBATION) was “active; positive” and the mutagenic call (Test System: AMES SALMONELLA TYPHIMURIUM, Strain/Indicator: TA98, Metabolic Activation: CYNOMOLOGUS MONKEY, LIVER, MICROSOMES, RIFAMPICIN, Method: PREINCUBATION) was “active; positive”. For the same molecule, the mutagenic call (Test System: AMES SALMONELLA TYPHIMURIUM, Strain/Indicator: TA98, Metabolic Activation: HAMSTER, LIVER, S-9, AROCLOR 1254, Method: PREINCUBATION) was “active; positive”, the mutagenic call (Test System: AMES SALMONELLA TYPHIMURIUM, Strain/Indicator: TA98, Metabolic Activation: HAMSTER, LIVER, S-9, Method: PREINCUBATION) was “active; positive” and the mutagenic call (Test System: AMES SALMONELLA TYPHIMURIUM, Strain/Indicator: TA98, Metabolic Activation: HUMAN, BLOOD, CYTOSOL, Method: PREINCUBATION) was “active; positive”. For the same molecule, the mutagenic call (Test System: AMES SALMONELLA TYPHIMURIUM, Strain/Indicator: TA98, Metabolic Activation: HUMAN, LIVER, MICROSOMES, Method: PREINCUBATION) was “active; positive”, the mutagenic call (Test System: AMES SALMONELLA TYPHIMURIUM, Strain/Indicator: TA98, Metabolic Activation: MONKEY, LIVER, MICROSOMES, Method: PREINCUBATION) was “active; positive” and the mutagenic call (Test System: AMES SALMONELLA TYPHIMURIUM, Strain/Indicator: TA98, Metabolic Activation: MONKEY, LIVER, S-9, Method: PREINCUBATION) was “active; positive”. The mutagenic call (Test System: AMES SALMONELLA TYPHIMURIUM, Strain/Indicator: TA98, Metabolic Activation: MOUSE, LIVER, HEPATOCYTES) was “active; positive”, the mutagenic call (Test System: AMES SALMONELLA TYPHIMURIUM, Strain/Indicator: TA98, Metabolic Activation: MOUSE, LIVER, HEPATOCYTES, 2,3,7,8-TETRACHLORODIBENZO-P-DIOXIN) was “active; positive” and the mutagenic call (Test System: AMES SALMONELLA TYPHIMURIUM, Strain/Indicator: TA98, Metabolic Activation: MOUSE, LIVER, MICROSOMES) was “active; positive”. For the same molecule, the mutagenic call (Test System: AMES SALMONELLA TYPHIMURIUM, Strain/Indicator: TA98, Metabolic Activation: MOUSE, LIVER, MICROSOMES, 2,3,7,8-TETRACHLORODIBENZO-P-DIOXIN) was “active; positive”, the mutagenic call (Test System: AMES SALMONELLA TYPHIMURIUM, Strain/Indicator: TA98, Metabolic Activation: MOUSE, LIVER, MICROSOMES, TCDD, Method: STANDARD PLATE) was “active; positive” and the mutagenic call (Test System: AMES SALMONELLA TYPHIMURIUM, Strain/Indicator: TA98, Metabolic Activation: MOUSE, LIVER, MICROSOMES, Method: STANDARD PLATE) was “active; positive”. For the same molecule, the mutagenic call (Test System: AMES SALMONELLA TYPHIMURIUM, Strain/Indicator: TA98, Metabolic Activation: MOUSE, LIVER, S-9, Method: PREINCUBATION) was “active; positive”, the mutagenic call (Test System: AMES SALMONELLA TYPHIMURIUM, Strain/Indicator: TA98, Metabolic Activation: NONE, Method: PREINCUBATION) was “inactive; negative” and the mutagenic call (Test System: AMES SALMONELLA TYPHIMURIUM, Strain/Indicator: TA98, Metabolic Activation: NONE, Method: STANDARD PLATE) was “inactive; negative”. The mutagenic call (Test System: AMES SALMONELLA TYPHIMURIUM, Strain/Indicator: TA98, Metabolic Activation: PATAS MONKEY, LIVER, MICROSOMES, Method: PREINCUBATION) was “active; positive”, the mutagenic call (Test System: AMES SALMONELLA TYPHIMURIUM, Strain/Indicator: TA98, Metabolic Activation: RAT LIVER, CYTOSOL, AROCLOR 1254, Method: STANDARD PLATE) was “inactive; negative” and the mutagenic call (Test System: AMES SALMONELLA TYPHIMURIUM, Strain/Indicator: TA98, Metabolic Activation: RAT LIVER, MICROSOMES, AROCLOR 1254, Method: STANDARD PLATE) was “active; positive”. For the same molecule, the mutagenic call (Test System: AMES SALMONELLA TYPHIMURIUM, Strain/Indicator: TA98, Metabolic Activation: RAT, LIVER, HEPATOCYTES, AROCLOR 1254, Method: PREINCUBATION) was “active; positive”, the mutagenic call (Test System: AMES SALMONELLA TYPHIMURIUM, Strain/Indicator: TA98, Metabolic Activation: RAT, LIVER, HEPATOCYTES, Method: PREINCUBATION) was “active; positive” and the mutagenic call (Test System: AMES SALMONELLA TYPHIMURIUM, Strain/Indicator: TA98, Metabolic Activation: RAT, LIVER, MICROSOMES, Method: PREINCUBATION) was “active; positive”. For the same molecule, the mutagenic call (Test System: AMES SALMONELLA TYPHIMURIUM, Strain/Indicator: TA98, Metabolic Activation: RAT, LIVER, S-9, 3-METHYLCHOLANTHRENE, Method: PREINCUBATION) was “active; positive”, the mutagenic call (Test System: AMES SALMONELLA TYPHIMURIUM, Strain/Indicator: TA98, Metabolic Activation: RAT, LIVER, S-9, AROCLOR, Method: PREINCUBATION) was “active; positive” and the mutagenic call (Test System: AMES SALMONELLA TYPHIMURIUM, Strain/Indicator: TA98, Metabolic Activation: RAT, LIVER, S-9, N-BENZYLIMIDAZOLE, Method: PREINCUBATION) was “active; positive”. For the same molecule, the mutagenic call (Test System: AMES SALMONELLA TYPHIMURIUM, Strain/Indicator: TA98, Metabolic Activation: RAT, LIVER, S-9, PHENOBARBITONE, Method: PREINCUBATION) was “active; positive”, the mutagenic call (Test System: AMES SALMONELLA TYPHIMURIUM, Strain/Indicator: TA98, Metabolic Activation: RAT, LIVER, S-9, Method: STANDARD PLATE) was “active; positive” and the mutagenic call (Test System: AMES SALMONELLA TYPHIMURIUM, Strain/Indicator: TA98, Method: STANDARD PLATE) was “active; positive”. The mutagenic call (Test System: AMES SALMONELLA TYPHIMURIUM, Strain/Indicator: TA100, Metabolic Activation: NONE, Method: PREINCUBATION) was “inactive; negative”, the mutagenic call (Test System: AMES SALMONELLA TYPHIMURIUM, Strain/Indicator: TA100, Metabolic Activation: RAT, LIVER, S-9, AROCLOR 1254, Method: PREINCUBATION) was “active; positive” and the mutagenic call (Test System: AMES SALMONELLA TYPHIMURIUM, Strain/Indicator: YG1019, Metabolic Activation: RAT LIVER S-9, AROCLOR, Method: PREINCUBATION) was “active; positive”. For the same molecule, the mutagenic call (Test System: AMES SALMONELLA TYPHIMURIUM, Strain/Indicator: YG1024, Metabolic Activation: RAT, LIVER, S-9, AROCLOR, Method: PREINCUBATION) was “active; positive”, the mutagenic call (Test System: CHINESE HAMSTER V-79, Strain/Indicator: V-79/6-THIOGUANINE, Metabolic Activation: RAT, LIVER, HEPATOCYTES, AROCLOR 1254) was “active; positive” and the mutagenic call (Test System: CHINESE HAMSTER V-79, Strain/Indicator: V-79/6-THIOGUANINE, Metabolic Activation: RAT, LIVER, S-9, AROCLOR 1254) was “inactive; negative”. For the same molecule, the mutagenic call (Test System: E. COLI, Strain/Indicator: CC109, Metabolic Activation: RAT, LIVER, S-9, AROCLOR 1254, Method: STANDARD PLATE) was “active; positive”, the mutagenic call (Test System: E. COLI, Strain/Indicator: CC110, Metabolic Activation: RAT, LIVER, S-9, AROCLOR 1254, Method: STANDARD PLATE) was “active; positive” and the mutagenic call (Test System: E. COLI, Strain/Indicator: DJ3109, Metabolic Activation: RAT, LIVER, S-9, AROCLOR 1254, Method: STANDARD PLATE) was “active; positive”. The mutagenic call (Test System: E. COLI, Strain/Indicator: DJ3110, Metabolic Activation: RAT, LIVER, S-9, AROCLOR 1254, Method: STANDARD PLATE) was “active; positive”, the mutagenic call (Test System: E. COLI, Strain/Indicator: DJ3209, Metabolic Activation: RAT, LIVER, S-9, AROCLOR 1254, Method: STANDARD PLATE) was “active; positive” and the mutagenic call (Test System: E. COLI, Strain/Indicator: DJ3210, Metabolic Activation: RAT, LIVER, S-9, AROCLOR 1254, Method: STANDARD PLATE) was “active; positive”. The mutagenic call (Test System: UDS HAMSTER HEPATOCYTES, Strain/Indicator: THY INCORP, Metabolic Activation: NONE, Method: LIQUID SCINTILLATION COUNTING) was “active; positive”, the mutagenic call (Test System: UDS HUMAN HEPATOCYTES, Strain/Indicator: THY INCORP, Metabolic Activation: NONE, Method: AUTORADIOGRAPHY) was “active; positive” and the mutagenic call (Test System: UDS MOUSE HEPATOCYTES, Strain/Indicator: THY INCORP, Metabolic Activation: NONE, Method: AUTORADIOGRAPHY) was “active; positive”. The mutagenic call (Test System: UDS RAT HEPATOCYTES, Strain/Indicator: THY INCORP, Metabolic Activation: NONE, Method: AUTORADIOGRAPHY) was “inactive; negative” and the mutagenic call (Test System: UDS RAT HEPATOCYTES, Strain/Indicator: THY INCORP, Metabolic Activation: NONE, Method: LIQUID SCINTILLATION COUNTING) was “inactive; negative”.
